Measurements taken from US11976063B2, “Pharmaceutical composition comprising berberine and ursodeoxycholic acid for the treatment of various diseases or disorders” (priority 2014, dated 2024).

Experiments:
[1] = test system: high fat diet (HFD) induced fatty liver golden hamster; assay: High fat diet-induced fatty liver golden hamster model (Example 6); assay type: in vivo, golden hamsters; conditions: for Serum TC level on Day 0 / Serum TG level on Day 0: Day 0 (before treatment); for Serum TC level on Day 0 / Serum TG level on Day 0 / Serum TC level, Week 1 / Serum TG level, Week 1 / Serum TC level, Week 3 / Serum TG level, Week 3 / Serum TC level, Week 5 / Serum TG level, Week 5 / Serum TC level, Week 7 / Serum TG level, Week 7: X ± s, n = 8
Source text: This example describes an in vivo efficacy study of BUDCA salt disclosed in the present invention using a high fat diet (HFD) induced fatty liver golden hamster model.
Forty-two SPF golden hamsters with the body weight of 90-100 g were acquired from Vital River Laboratory Animal Technology Co., Ltd. After acclimatization for one week, eight hamsters were selected as normal control group (Group 1), which were fed with normal chow diet. The rest thirty-four hamsters were fed with HFD for two weeks to establish a fatty liver animal model resembling the pathophysiology of NAFLD in human.
For the thirty-four hamsters induced with HFD, twenty-four of them with TC level of 17.96±1.70 mmol/L at the fourteenth day post of HFD were selected and randomized into three groups (n=8 per group): • Group 2: Model control (0.5% tragacanth solution 10 ml/kg); • Group 3: Low-dose (BUDCA 50 mg/kg); • Group 4: High-dose (BUDCA 200 mg/kg)
The hamsters from Group 2 to 4 were treated with corresponding testing articles indicated above once a day by intragastric gavage, and HFD continued throughout the duration of the 7-week administration. The normal hamsters in Group 1 were treated with 0.5% tragacanth solution (10 ml/kg) by intragastric gavage. Serum lipid and blood glucose level, liver function index, food intake and body weight were measured throughout the study. After the 7-week administration, the hamsters were sacrificed and dissected for the general observation and histopathological analysis of liver tissue.

[2] = test system: high fat diet (HFD) induced non-alcoholic fatty liver mice; assay: High fat diet induced non-alcoholic fatty liver mice model (Example 5); assay type: in vivo, NIH male mice; conditions: for Body weight / Weight ratio of liver / ALT / AST / HDL-C / LDL-C / MDA / SOD / TC / TG: i.g. once daily, HFD, mean ± S.E.M; for ALT / AST / HDL-C / LDL-C / MDA / SOD / TC / TG: serum
Source text: This example describes an in vivo efficacy study of BUDCA disclosed in the present invention using a high fat diet (HFD) induced non-alcoholic fatty liver mice model.
91 NIH male mice of 4 weeks old were obtained from Vital River Laboratories (Beijing, China). After acclimatization for one week, 13 mice were selected as control group (Group 1, G1) with normal chow diet fed, and the other 78 mice were fed with HFD (in which 40% of calories is from fat) for 4 weeks to establish an animal model resembling the pathophysiology of non-alcoholic fatty liver in human.
Following 4 weeks of high fat dietary intervention, the 78 mice were divided into 6 groups according to body weight (n=13 per group): • Group 2, G2: Vehicle control (0.5% CMC-Na solution) • Group 3, G3: Low-dose group of BUDCA (30 mg/kg) • Group 4, G4: Middle-dose group of BUDCA (100 mg/kg) • Group 5, G5: High-dose group of BUDCA (300 mg/kg) • Group 6, G6: BBR control group (Berberine HCl, 150 mg/Kg) • Group 7, G7: UDCA control group (Ursodeoxycholic acid, 150 mg/Kg)
The mice from G2 to G7 were administered with the corresponding testing articles indicated above once daily by intragastric gavage. HFD continued throughout the duration of the treatment of 6 weeks. The normal mice (G1) were treated with vehicle (0.5% CMC-Na solution) via intragastric gavage. At the end of experiment, the following biochemical parameters were measured and tests were carried out: • Body weight, the weight ratio of liver • Total cholesterol (TC) and triglyceride (TG) levels, high density lipoprotein cholesterol (HDL-C) and low density lipoprotein cholesterol (LDL-C) levels • Alanine aminotransferase (ALT) and aspartate aminotransferase (AST) levels • Superoxide dismutase (SOD) activity and malondialdehyde (MDA) level • Oral glucose tolerance test (OGTT) • Histopathological examination of liver ([…] staining)
After 6 weeks treatment, blood was collected via retro-orbital bleeding of each 12-hour fasted animal. Liver was harvested by surgery for histopathology analysis after weight measurement. Then the serum was isolated for the determination of TC, TG, HDL-C, LDL-C, ALT, AST, SOD and MDA.
One week before sacrifice (Week 5 of treatment), an oral glucose tolerance test (OGTT) was performed in 12-hour fasted animals. For the OGTT, all mice received an oral glucose challenge at 2.0 g/Kg and the blood glucose concentrations were determined by glucometer (ACCU-CHEK Active, Roche) at 0, 30, 60, 90 and 120 min.
The liver tissue was histopathologically evaluated by […] staining after frozen section.

[3] = BUDCA 50 mg/kg i.g. once a day, Week 1
[4] = BUDCA 200 mg/kg i.g. once a day, Week 1
[5] = BUDCA 200 mg/kg i.g. once a day
[6] = both high-dose and low-dose group, P<0.01, FIG. 16
[7] = both medicated groups, P<0.01, FIG. 22

COc1ccc2cc3[n+](cc2c1OC)CCc1cc2c(cc1-3)OCO2.C[C@H](CCC(=O)[O-])[C@H]1CC[C@H]2[C@@H]3[C@@H](O)C[C@@H]4C[C@H](O)CC[C@]4(C)[C@H]3CC[C@]12C [BUDCA, berberine ursodeoxycholate]
Dose dependence of the effects ([1]; 50 vs 200 mg/kg, 7 weeks): relatively dose-dependent | Serum TC level on Day 0 ([1]; BUDCA 50 mg/kg group): 18.14 ± 1.13 mmol/L | Serum TG level on Day 0 ([1]; BUDCA 50 mg/kg group): 5.97 ± 1.19 mmol/L | Serum TC level, Week 1 [1, 3]: 9.33 ± 1.52 mmol/L | Serum TG level, Week 1 [1, 3]: 3.60 ± 0.78 mmol/L | Serum TC level, Week 3 ([1]; BUDCA 50 mg/kg i.g. once a day): 7.58 ± 2.01 mmol/L | Serum TG level, Week 3 ([1]; BUDCA 50 mg/kg i.g. once a day): 2.98 ± 1.31 mmol/L | Serum TC level, Week 5 ([1]; BUDCA 50 mg/kg i.g. once a day): 10.50 ± 2.89 mmol/L | Serum TG level, Week 5 ([1]; BUDCA 50 mg/kg i.g. once a day): 4.51 ± 3.10 mmol/L | Serum TC level, Week 7 ([1]; BUDCA 50 mg/kg i.g. once a day): 9.78 ± 2.58 mmol/L | Serum TG level, Week 7 ([1]; BUDCA 50 mg/kg i.g. once a day): 3.88 ± 1.21 mmol/L | Serum TC level on Day 0 ([1]; BUDCA 200 mg/kg group): 18.18 ± 1.10 mmol/L | Serum TG level on Day 0 ([1]; BUDCA 200 mg/kg group): 6.31 ± 1.75 mmol/L | Serum TC level, Week 1 [1, 4]: 7.51 ± 0.71 mmol/L | Serum TG level, Week 1 [1, 4]: 3.00 ± 0.67 mmol/L | Serum TC level, Week 3 [1, 5]: 6.75 ± 1.00 mmol/L | Serum TG level, Week 3 [1, 5]: 2.68 ± 1.09 mmol/L | Serum TC level, Week 5 [1, 5]: 5.38 ± 1.24 mmol/L | Serum TG level, Week 5 [1, 5]: 3.04 ± 1.68 mmol/L | Serum TC level, Week 7 [1, 5]: 4.95 ± 0.84 mmol/L | Serum TG level, Week 7 [1, 5]: 1.90 ± 0.66 mmol/L | AI value (arterial stiffness index) vs model control group [1, 6]: significantly decreased | Serum LDL-c level vs model control group [1, 6]: significantly decreased | Value of TC/HDL-c vs model control group [1, 6]: significantly decreased | TC level vs model control group ([1]; both low-dose (50 mg/kg) and high-dose (200 mg/kg) group, P<0.01): significantly declined | Food intake vs model control group ([1]; both medicated groups (50 and 200 mg/kg), P>0.05): no significant difference on food intake | Serum AST level vs model control group ([1]; both medicated groups, after 7-week administration, P<0.01, FIG. 17): significantly declined | Serum ALT level vs model control group ([1]; both medicated groups, after 7-week administration, P<0.01, FIG. 18): significantly declined | Color of livers vs model control group ([1]; both medicated groups, FIG. 20): improved | Liver weight vs model control group ([1]; both medicated groups, P<0.01, FIG. 19): significantly decreased | Content of TC and TG in liver vs model control group ([1]; both medicated groups, P<0.01, FIG. 21): significantly decreased | Inflammation score of liver tissue vs model control group [1, 7]: significantly decreased | Positive area for oil red vs model control group [1, 7]: significantly decreased | TG level vs model control group, Week 1 and Week 7 ([1]; high-dose group (200 mg/kg), Week 1 and Week 7, P<0.01): significantly declined | Serum LDL-c level, value of TC/HDL-c and AI value compared with normal control group ([1]; high-dose group (200 mg/kg), after 7-week administration): very similar to those of normal control group | HDL-c level vs model control group ([1]; high-dose group (200 mg/kg), P<0.01): significantly declined | Body weight, first week of treatment ([1]; high-dose group (200 mg/kg), P<0.05): significantly reduced in the first week of treatment | Body weight, rest time of treatment ([1]; high-dose group (200 mg/kg), P>0.05): no significant changes were observed in the rest time of treatment | Color of livers ([1]; high-dose group (200 mg/kg), similar to normal control group): ruddy | Body weight vs model control group ([1]; low-dose and high-dose group, at sacrifice, P>0.05): no significant change observed | TG level vs model control group, Week 1 ([1]; low-dose group (50 mg/kg), Week 1, P<0.01): significantly declined | Body weight throughout the study ([1]; low-dose group (50 mg/kg), P>0.05): No significant changes were observed | Body weight ([2]; BUDCA 30 mg/kg (G3), 6 weeks): 40.3 ± 1.18 g | Weight ratio of liver ([2]; BUDCA 30 mg/kg (G3), 6 weeks): 4.33 ± 0.13% | Body weight ([2]; BUDCA 100 mg/kg (G4), 6 weeks): 41.7 ± 1.59 g | Weight ratio of liver ([2]; BUDCA 100 mg/kg (G4), 6 weeks): 4.15 ± 0.09% | Body weight ([2]; BUDCA 300 mg/kg (G5), 6 weeks): 41.5 ± 1.16 g | Weight ratio of liver ([2]; BUDCA 300 mg/kg (G5), 6 weeks): 4.27 ± 0.10% | Effect on symptoms of non-alcoholic fatty liver (overall efficacy) ([2]; BUDCA 30-300 mg/kg, berberine or ursodeoxycholic acid monotherapy 150 mg/Kg, 6 weeks): dose-dependently ameliorated symptoms of non-alcoholic fatty liver | Gastrointestinal side effects at the time of sacrifice ([2]; BUDCA treated animals, 6 weeks i.g.): no gastrointestinal side effects were observed | ALT ([2]; BUDCA 30 mg/kg (G3), 6 weeks): 30.6 ± 4.37 U/L | AST ([2]; BUDCA 30 mg/kg (G3), 6 weeks): 148.3 ± 7.15 U/L | HDL-C ([2]; BUDCA 30 mg/kg (G3), 6 weeks): 2.33 ± 0.15 mmol/L | LDL-C ([2]; BUDCA 30 mg/kg (G3), 6 weeks): 1.05 ± 0.09 mmol/L | MDA ([2]; BUDCA 30 mg/kg (G3), 6 weeks): 12.34 ± 2.89 | SOD ([2]; BUDCA 30 mg/kg (G3), 6 weeks): 61.05 ± 11.59 U/mL | TC ([2]; BUDCA 30 mg/kg (G3), 6 weeks): 5.49 ± 0.25 mmol/L | TG ([2]; BUDCA 30 mg/kg (G3), 6 weeks): 1.18 ± 0.20 mmol/L | ALT ([2]; BUDCA 100 mg/kg (G4), 6 weeks): 29.0 ± 3.95 U/L | AST ([2]; BUDCA 100 mg/kg (G4), 6 weeks): 140.2 ± 16.32 U/L | HDL-C ([2]; BUDCA 100 mg/kg (G4), 6 weeks): 2.26 ± 0.22 mmol/L | LDL-C ([2]; BUDCA 100 mg/kg (G4), 6 weeks): 1.06 ± 0.11 mmol/L | MDA ([2]; BUDCA 100 mg/kg (G4), 6 weeks): 8.02 ± 1.08 µM | SOD ([2]; BUDCA 100 mg/kg (G4), 6 weeks): 91.83 ± 4.90 U/mL | TC ([2]; BUDCA 100 mg/kg (G4), 6 weeks): 5.28 ± 0.50 mmol/L | TG ([2]; BUDCA 100 mg/kg (G4), 6 weeks): 0.92 ± 0.06 mmol/L | ALT ([2]; BUDCA 300 mg/kg (G5), 6 weeks): 27.8 ± 3.08 U/L | AST ([2]; BUDCA 300 mg/kg (G5), 6 weeks): 163.5 ± 11.63 U/L | HDL-C ([2]; BUDCA 300 mg/kg (G5), 6 weeks): 2.48 ± 0.15 mmol/L | LDL-C ([2]; BUDCA 300 mg/kg (G5), 6 weeks): 1.03 ± 0.22 mmol/L | MDA ([2]; BUDCA 300 mg/kg (G5), 6 weeks): 7.78 ± 1.66 µM | SOD ([2]; BUDCA 300 mg/kg (G5), 6 weeks): 97.54 ± 4.88 U/mL | TC ([2]; BUDCA 300 mg/kg (G5), 6 weeks): 5.95 ± 0.54 mmol/L | TG ([2]; BUDCA 300 mg/kg (G5), 6 weeks): 0.85 ± 0.06 mmol/L
